What was measured:
Format in all cases: in vivo
[1] = test system: barnyardgrass (Echinochloa crus-galli); test: Test C greenhouse herbicide test, pre- and postemergence
Outline: (§1)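 Preemergence: seeds sown in a loam soil–sand blend and sprayed with test chemicals in a non-phytotoxic solvent mixture containing surfactant. Postemergence: plants grown in peat-based medium and treated at 2 to 18 cm (1- to 4-leaf stage). After 13 to 15 d in a greenhouse, injury was visually rated 0–100 against controls.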

[2] = test system: blackgrass (Alopecurus myosuroides); test: as above
Outline: as §1

[3] = test system: corn (Zea mays); test: as above
Outline: as §1

[4] = test system: crabgrass, large (large crabgrass, Digitaria sanguinalis); test: as above; settings: for Plant response rating, Crabgrass, Large: Postemergence; for Crabgrass, Large plant response rating: postemergence, 62 g ai/ha
Outline: as §1

[5] = test system: foxtail, giant (giant foxtail, Setaria faberii); test: as above; settings: for Plant response rating, Foxtail, Giant: Postemergence; for Foxtail, Giant plant response rating: postemergence, 62 g ai/ha
Outline: as §1

[6] = test system: galium (catchweed bedstraw, Galium aparine); test: as above; settings: for Plant response rating, Galium: Postemergence; for Galium plant response rating: postemergence, 62 g ai/ha
Outline: as §1

[7] = test system: johnsongrass (Sorghum halepense); test: as above; settings: for Plant response rating, Johnsongrass: Postemergence; for Johnsongrass plant response rating: postemergence, 62 g ai/ha
Outline: as §1

[8] = test system: morningglory (Ipomoea coccinea); test: as above; settings: for Plant response rating, Morningglory: Postemergence; for Morningglory plant response rating: postemergence, 62 g ai/ha
Outline: as §1

[9] = test system: oilseed rape (Brassica napus); test: as above; settings: for Plant response rating, Oilseed Rape: Postemergence; for Oilseed Rape plant response rating: postemergence, 62 g ai/ha
Outline: as §1

[10] = test system: pigweed (Amaranthus retroflexus); test: as above; settings: for Plant response rating, Pigweed: Postemergence; for Pigweed plant response rating: postemergence, 62 g ai/ha
Outline: as §1

[11] = test system: ragweed (common ragweed, Ambrosia elatior); test: as above; settings: for Plant response rating, Ragweed: Postemergence; for Ragweed plant response rating: postemergence, 62 g ai/ha
Outline: as §1

[12] = test system: soybean (Glycine max); test: as above; settings: for Plant response rating, Soybean: Postemergence; for Soybean plant response rating: postemergence, 62 g ai/ha
Outline: as §1

[13] = test system: velvetleaf (Abutilon theophrasti); test: as above; settings: for Plant response rating, Velvetleaf: Postemergence; for Velvetleaf plant response rating: postemergence, 62 g ai/ha
Outline: as §1

[14] = test system: waterhemp (common waterhemp, Amaranthus rudis); test: as above; settings: for Plant response rating, Waterhemp: Postemergence; for Waterhemp plant response rating: postemergence, 62 g ai/ha
Outline: as §1

[15] = test system: wheat (winter wheat, Triticum aestivum); test: as above; settings: for Plant response rating, Wheat: Postemergence; for Wheat plant response rating: postemergence, 62 g ai/ha
Outline: as §1

[16] = test system: kochia (Kochia scoparia); test: Test C greenhouse herbicide test, postemergence; settings: for Plant response rating, Kochia: Postemergence; for Kochia plant response rating: postemergence, 62 g ai/ha
Outline: (§2)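 Ratings are visual scores from 0 (no effect) to 100 (complete control), made against controls 13–15 d after treatment. Postemergence sprays were applied in the greenhouse to plants 2–18 cm tall (1- to 4-leaf stage) in peat-moss/vermiculite potting medium.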

[17] = test system: oat, wild (wild oat, Avena fatua); test: Test C greenhouse herbicide test, postemergence; settings: for Plant response rating, Oat, Wild: Postemergence; for Oat, Wild plant response rating: postemergence, 62 g ai/ha
Outline: as §2

[18] = Postemergence, 31 g ai/ha, 0 to 100 scale (0 no effect, 100 complete control)
[19] = Postemergence, 125 g ai/ha, scale 0 to 100, 0 is no effect, 100 is complete control
[20] = Postemergence, 250 g ai/ha, scale 0 to 100, 0 no effect, 100 complete control, 13 to 15 d
[21] = postemergence, 62 g ai/ha, scale 0 to 100, 0 no effect, 100 complete control
[22] = 125 g ai/ha, scale 0 to 100, 0 is no effect, 100 is complete control
[23] = 250 g ai/ha, scale 0 to 100, 0 no effect, 100 complete control, 13 to 15 d
[24] = scale 0 to 100, 0 no effect, 100 complete control

## CC(=O)Oc1c(C#N)nn(C)c(=O)c1-c1c(C)ccc2ccccc12 [Compound 98]
[1]; [18]
  Barnyardgrass plant response rating: 60
[1]; [19]
  Plant response rating, Barnyardgrass: 98
[1]; [20]
  Plant response rating, Barnyardgrass: 98
[1]; [21]
  Barnyardgrass plant response rating: 85
[2]; [18]
  Blackgrass plant response rating: 5
[2]; [19]
  Plant response rating, Blackgrass: 50
[2]; [20]
  Plant response rating, Blackgrass: 70
[2]; [21]
  Blackgrass plant response rating: 30
[3]; [18]
  Corn plant response rating: 5
[3]; [19]
  Plant response rating, Corn: 15
[3]; [20]
  Plant response rating, Corn: 15
[3]; [21]
  Corn plant response rating: 0
[4]; [22]
  Plant response rating, Crabgrass, Large: 45
[4]; [23]
  Plant response rating, Crabgrass, Large: 70
[4]; [24]
  Crabgrass, Large plant response rating: 25
[5]; [22]
  Plant response rating, Foxtail, Giant: 98
[5]; [23]
  Plant response rating, Foxtail, Giant: 100
[5]; [24]
  Foxtail, Giant plant response rating: 95
[6]; [22]
  Plant response rating, Galium: 98
[6]; [23]
  Plant response rating, Galium: 98
[6]; [24]
  Galium plant response rating: 95
[7]; [22]
  Plant response rating, Johnsongrass: 10
[7]; [23]
  Plant response rating, Johnsongrass: 10
[7]; [24]
  Johnsongrass plant response rating: 5
[8]; [22]
  Plant response rating, Morningglory: 100
[8]; [23]
  Plant response rating, Morningglory: 100
[8]; [24]
  Morningglory plant response rating: 100
[9]; [22]
  Plant response rating, Oilseed Rape: 10
[9]; [23]
  Plant response rating, Oilseed Rape: 25
[9]; [24]
  Oilseed Rape plant response rating: 0
[10]; [22]
  Plant response rating, Pigweed: 100
[10]; [23]
  Plant response rating, Pigweed: 100
[10]; [24]
  Pigweed plant response rating: 100
[11]; [22]
  Plant response rating, Ragweed: 98
[11]; [23]
  Plant response rating, Ragweed: 100
[11]; [24]
  Ragweed plant response rating: 98
[12]; [22]
  Plant response rating, Soybean: 25
[12]; [23]
  Plant response rating, Soybean: 25
[12]; [24]
  Soybean plant response rating: 10
[13]; [22]
  Plant response rating, Velvetleaf: 75
[13]; [23]
  Plant response rating, Velvetleaf: 100
[13]; [24]
  Velvetleaf plant response rating: 70
[14]; [22]
  Plant response rating, Waterhemp: 100
[14]; [23]
  Plant response rating, Waterhemp: 100
[14]; [24]
  Waterhemp plant response rating: 100
[15]; [22]
  Plant response rating, Wheat: 15
[15]; [23]
  Plant response rating, Wheat: 30
[15]; [24]
  Wheat plant response rating: 10
[16]; [22]
  Plant response rating, Kochia: 60
[16]; [23]
  Plant response rating, Kochia: 80
[16]; [24]
  Kochia plant response rating: 20
[17]; [22]
  Plant response rating, Oat, Wild: 95
[17]; [23]
  Plant response rating, Oat, Wild: 100
[17]; [24]
  Oat, Wild plant response rating: 80

## COc1nn(C)c(=O)c(-c2c(C)sc3ccc(Cl)cc23)c1O [Compound 100]
[1]; [18]
  Barnyardgrass plant response rating: 10
[1]; [19]
  Plant response rating, Barnyardgrass: 30
[1]; [20]
  Plant response rating, Barnyardgrass: 40
[1]; [21]
  Barnyardgrass plant response rating: 25
[2]; [18]
  Blackgrass plant response rating: 5
[2]; [19]
  Plant response rating, Blackgrass: 5
[2]; [20]
  Plant response rating, Blackgrass: 25
[2]; [21]
  Blackgrass plant response rating: 5
[3]; [18]
  Corn plant response rating: 5
[3]; [19]
  Plant response rating, Corn: 5
[3]; [20]
  Plant response rating, Corn: 10
[3]; [21]
  Corn plant response rating: 10
[4]; [22]
  Plant response rating, Crabgrass, Large: 25
[4]; [23]
  Plant response rating, Crabgrass, Large: 15
[4]; [24]
  Crabgrass, Large plant response rating: 15
[5]; [22]
  Plant response rating, Foxtail, Giant: 75
[5]; [23]
  Plant response rating, Foxtail, Giant: 90
[5]; [24]
  Foxtail, Giant plant response rating: 45
[6]; [22]
  Plant response rating, Galium: 95
[6]; [23]
  Plant response rating, Galium: 95
[6]; [24]
  Galium plant response rating: 95
[7]; [22]
  Plant response rating, Johnsongrass: 5
[7]; [23]
  Plant response rating, Johnsongrass: 10
[7]; [24]
  Johnsongrass plant response rating: 0
[8]; [22]
  Plant response rating, Morningglory: 100
[8]; [23]
  Plant response rating, Morningglory: 100
[8]; [24]
  Morningglory plant response rating: 100
[9]; [22]
  Plant response rating, Oilseed Rape: 10
[9]; [23]
  Plant response rating, Oilseed Rape: 90
[9]; [24]
  Oilseed Rape plant response rating: 60
[10]; [22]
  Plant response rating, Pigweed: 100
[10]; [23]
  Plant response rating, Pigweed: 100
[10]; [24]
  Pigweed plant response rating: 85
[11]; [22]
  Plant response rating, Ragweed: 95
[11]; [23]
  Plant response rating, Ragweed: 98
[11]; [24]
  Ragweed plant response rating: 95
[12]; [22]
  Plant response rating, Soybean: 5
[12]; [23]
  Plant response rating, Soybean: 5
[12]; [24]
  Soybean plant response rating: 5
[13]; [22]
  Plant response rating, Velvetleaf: 40
[13]; [23]
  Plant response rating, Velvetleaf: 65
[13]; [24]
  Velvetleaf plant response rating: 50
[14]; [22]
  Plant response rating, Waterhemp: 95
[14]; [23]
  Plant response rating, Waterhemp: 98
[14]; [24]
  Waterhemp plant response rating: 90
[15]; [22]
  Plant response rating, Wheat: 0
[15]; [23]
  Plant response rating, Wheat: 5
[15]; [24]
  Wheat plant response rating: 0
[16]; [22]
  Plant response rating, Kochia: 95
[16]; [23]
  Plant response rating, Kochia: 95
[16]; [24]
  Kochia plant response rating: 90
[17]; [22]
  Plant response rating, Oat, Wild: 85
[17]; [23]
  Plant response rating, Oat, Wild: 95
[17]; [24]
  Oat, Wild plant response rating: 70

— patent US10597388B2, “Pyridazinone herbicides” (FMC CORPORATION, priority 2014, dated 2020)
